Laboratory results from US7199130B2, “Substituted 5,6,6a, 11b-tetrahydro-7-oxa-5-aza-benzo[c]fluorene-6-carboxylic acid compounds as NMDA-antagonists” (Gruenenthal GmbH, priority 2001, dated 2007).

What was measured:
[1] = molecular target: T1, glycine-binding site of the NMDA receptor channel (Rattus norvegicus, UniProt P35439); assay: Receptor binding (glycine-binding site of the NMDA receptor channel), displacement of (3H)-MDL 105.519
T1 construct: from tissue; host or cells: rat brain cortex and hippocampus membrane homogenate (male Wistar)
Protocol: Receptor Binding (Glycine-Binding Site of the NMDA Receptor Channel)
The investigation for determining the affinity of the compounds according to the invention of the formula I towards the glycine-binding site of the NMDA receptor channel was performed on brain membrane homogenates (homogenate of the cortex and hippocampus area from male rat brain, Wistar strain) [B. M. Baron, B. W. Siegel, B. L. Harrison, R. S. Gross, C. Hawes and P. Towers, Journal of Pharmacology and Experimental Therapeutics, vol. 279, p. 62, 1996].
To this end, the cortex and hippocampus were dissected out of freshly harvested rat brains and homogenized with ice cooling in 5 mmol/l of TRIS-acetate buffer, 0.32 mol/l of sucrose, pH 7.4 (10 ml/g fresh weight) using a Potter homogenizer (Braun/Melsungen, 10 piston strokes at 500 rpm) and then centrifuged for 10 minutes at 1,000 g and 4° C. […] This membrane homogenate was used in the receptor binding test in a quantity of 100 μl per 1 ml batch (0.1 mg of protein/ml in the final batch). […] The level of non-specific binding was determined in the presence of 1 mmol/l of glycine.
In further batches, the compounds according to the invention were added in concentration series and the displacement of the radioactive ligand from its specific binding at the glycine-binding site of the NMDA receptor channel was determined. […]

[2] = system: formaldehyde-induced nociception; assay: Formaldehyde test, rat (second phase); type: in vivo; settings: iv, male Sprague-Dawley rats, second (late) phase of formaldehyde test, pain rate vs vehicle control
Protocol: The investigations to determine the antinociceptive action of the compounds according to the invention of the formula I were carried by the formaldehyde test on male rats (Sprague-Dawley, 150–170 g). In the formaldehyde test, a distinction is drawn between the first (early) phase (0–15 min after formaldehyde injection) and the second (later) phase (15–60 min after formaldehyde injection) (D. Dubuisson, S. G. Dennis, Pain 4, 161–174 (1977)). […]
A nociceptive reaction was induced in the freely mobile test animals by a single, subcutaneous formaldehyde injection (50 μl, 5%) into the dorsal side of the rear hind paw, the reaction being classed according to one of the following behavioral parameters: lifting and holding up the affected paw (score 1), shaking or twitching (score 2), licking and biting (score 3). The differential behavior induced by the formaldehyde injection was recorded by observing the animals in the late phase of the formaldehyde test and assigned a variable weighting in the evaluation. Normal behavior, in which the animal places an even load on all four paws, was recorded as a score of 0. […] The nociceptive behavior was calculated as a “pain rate” (PR). […] On the basis of the calculated PR values, the effect of the substance was determined as a percentage change relative to the control. […]

- Glycine-binding site of the NMDA receptor channel Displacement ([1]; 10 μmol/l of substance, displacement of (3H)-MDL 105.519 from specific binding, rat brain membranes): 100%
- Ki ([1]; rat cortex and hippocampus membrane homogenate, ligand 1 nmol/l (3H)-MDL 105.519, converted from IC50 by Cheng-Prussoff, mean of three independent tests): 53 nM
Structure (SMILES): O=C(O)C1Nc2cc(Cl)cc(Cl)c2C2c3ccccc3OC12 (stereo not drawn) [Example 1, 1,3-Dichloro-5,6,6a,11b-tetrahydro-7-oxa-5-aza-benzo [c]fluorene-6-carboxylic acid]
- ED50 [2]: 7.27 mg/kg
